Measurements: patent US7265120B2, “Pyrazine derivatives and pharmaceutical use thereof” (Astellas Pharma Inc., priority 2004, dated 2007)

melting point	SMILES
185.5 to 187 °C	CC(C)n1nc(-c2nc(NCCCc3ccccc3)c(N)nc2-c2ccccc2)ccc1=O [Example 136, 6-{5-amino-3-phenyl-6-[(3-phenylpropyl)amino]-2-pyrazinyl}-2-isopropyl-3(2H)-pyridazinone]
173 to 176 °C	CC(C)n1nc(-c2nc(OCCc3ccccc3)c(N)nc2-c2ccccc2)ccc1=O [Example 174, 6-[5-amino-3-phenyl-6-(2-phenylethoxy)-2-pyrazinyl]-2-isopropyl-3(2H)-pyridazinone]
211 to 214 °C	COc1nc(-c2ccc(=O)n(C(C)C)n2)c(-c2ccccc2)nc1N [Example 157, 6-(5-amino-6-methoxy-3-phenyl-2-pyrazinyl)-2-isopropyl-3(2H)-pyridazinone]
155 to 157 °C	CC(C)n1nc(-c2nc(N3CCN(C)CC3)c(N)nc2-c2ccccc2)ccc1=O [Example 113, 6-[5-amino-6-(4-methyl-1-piperazinyl)-3-phenyl-2-pyrazinyl]-2-isopropyl-3(2H)-pyridazinone]
172 to 174 °C	CC(C)n1nc(-c2nc(OCc3ccco3)c(N)nc2-c2ccccc2)ccc1=O [Example 164, 6-[5-amino-6-(2-furylmethoxy)-3-phenyl-2-pyrazinyl]-2-isopropyl-3(2H)-pyridazinone]
233 to 236 °C	CCOC(=O)C=Cc1nc(-c2ccc(=O)n(C(C)C)n2)c(-c2ccccc2)nc1N [Example 95, ethyl 3-[3-amino-6-(1-isopropyl-6-oxo-1,6-dihydro-3-pyridazinyl)-5-phenyl-2-pyrazinyl]acrylate]
238 to 241 °C	CC(C)n1nc(-c2nc(N)c(C#N)nc2-c2ccccc2)ccc1=O [Example 21, 3-Amino-5-(1-isopropyl-6-oxo-1,6-dihydro-3-pyridazinyl)-6-phenyl-2-pyrazinecarbonitrile]
148 to 150 °C	CC(C)n1nc(-c2nc(Sc3ccc(F)cc3)c(N)nc2-c2ccccc2)ccc1=O [Example 159, 6-{5-amino-6-[(4-fluorophenyl)thio]-3-phenyl-2-pyrazinyl}-2-isopropyl-3(2H)-pyridazinone]
238 to 240 °C	Cc1csc(-c2nc(-c3ccc(=O)n(C(C)C)n3)c(-c3ccccc3)nc2N)n1 [Example 27, 6-[5-amino-6-(4-methyl-thiazol-2-yl)-3-phenyl-2-pyrazinyl]-2-isopropyl-3(2H)-pyridazinone]
224 to 225.5 °C	CC(C)n1nc(-c2nc(-c3cccnc3)c(N)nc2-c2ccccc2)ccc1=O [Example 84, 6-[5-amino-3-phenyl-6-(3-pyridyl)-2-pyrazinyl]-2-isopropyl-3(2H)-pyridazinone]
192 to 194 °C	CC(C)n1nc(-c2nc(NCc3ccccn3)c(N)nc2-c2ccccc2)ccc1=O [Example 98, 6-{5-amino-3-phenyl-6-[(2-pyridylmethyl)amino]-2-pyrazinyl}-2-isopropyl-3(2H)-pyridazinone]
156 to 159 °C	Cn1nc(-c2nc(OCCc3ccccc3)c(N)nc2-c2ccccc2)ccc1=O [Example 187, 6-[5-amino-3-phenyl-6-(2-phenylethoxy)-2-pyrazinyl]-2-methyl-3(2H)-pyridazinone]

Further lines, the compound ahead of its results:

SMILES	melting point
CC(C)n1nc(-c2nc(-c3cccs3)c(N)nc2-c2ccccc2)ccc1=O [Example 80, 6-[5-amino-3-phenyl-6-(2-thienyl)-2-pyrazinyl]-2-isopropyl-3(2H)-pyridazinone]	181 to 183 °C
Cn1nc(-c2nc(-n3cccc3)c(N)nc2-c2ccccc2)ccc1=O [Example 148, 6-[5-amino-3-phenyl-6-(1H-pyrrol-1-yl)-2-pyrazinyl]-2-methyl-3(2H)-pyridazinone]	202 to 205 °C
CC(C)n1nc(-c2nc(NCCN3CCOCC3)c(N)nc2-c2ccccc2)ccc1=O [Example 104, 6-(5-amino-6-{[2-(4-morpholinyl)ethyl]amino}-3-phenyl-2-pyrazinyl)-2-isopropyl-3(2H)-pyridazinone]	230 to 232.5 °C
CC(C)n1nc(-c2nc(N3CC4CCC(C3)O4)c(N)nc2-c2ccccc2)ccc1=O [Example 119, 6-[5-amino-6-(8-oxa-3-azabicyclo[3.2.1]oct-3-yl)-3-phenyl-2-pyrazinyl]-2-isopropyl-3(2H)-pyridazinone]	235 to 238 °C
CC(C)n1nc(-c2nc(OCCOC(C)(C)C)c(N)nc2-c2ccccc2)ccc1=O [Example 167, 6-[5-amino-6-(2-tert-butoxyethoxy)-3-phenyl-2-pyrazinyl]-2-isopropyl-3(2H)-pyridazinone]	163 to 165 °C
Cn1nc(-c2nc(NCCc3ccccc3)c(N)nc2-c2ccccc2)ccc1=O [Example 125, 6-{5-amino-3-phenyl-6-[(2-phenylethyl)amino]-2-pyrazinyl}-2-methyl-3(2H)-pyridazinone]	232 to 234 °C
COC1CCN(c2nc(-c3ccc(=O)n(C(C)C)n3)c(-c3ccccc3)nc2N)CC1 [Example 110, 6-[5-amino-6-(4-methoxy-1-piperidinyl)-3-phenyl-2-pyrazinyl]-2-isopropyl-3(2H)-pyridazinone]	179 to 181 °C
CC(C)n1nc(-c2nc(C(=O)O)c(N)nc2-c2ccccc2Br)ccc1=O [Example 198, 3-amino-5-(2-bromophenyl)-6-(1-isopropyl-6-oxo-1,6-dihydro-3-pyridazinyl)-2-pyrazinecarboxylic acid]	237 °C (dec.)
CC(C)n1nc(-c2nc(Nc3ccccc3)c(N)nc2-c2ccccc2)ccc1=O [Example 139, 6-(5-amino-6-anilino-3-phenyl-2-pyrazinyl)-2-isopropyl-3(2H)-pyridazinone]	> 250 °C
CC(C)n1nc(-c2nc(C3=CCCN(C)C3)c(N)nc2-c2ccccc2)ccc1=O [Example 92, 6-[5-amino-6-(1-methyl-1,2,5,6-tetrahydro-3-pyridyl)-3-phenyl-2-pyrazinyl]-2-isopropyl-3(2H)-pyridazinone]	191 to 193 °C
Cn1nc(-c2nc(N(CCO)Cc3ccccc3)c(N)nc2-c2ccccc2)ccc1=O [Example 143, 6-{5-amino-6-[benzyl(2-hydroxyethyl)amino]-3-phenyl-2-pyrazinyl}-2-methyl-3(2H)-pyridazinone]	210 to 212 °C
CC(C)n1nc(-c2nc(C(N)=O)c(C#N)nc2-c2ccccc2)ccc1=O [Example 23, 3-Cyano-6-(1-isopropyl-6-oxo-1,6-dihydro-3-pyridazinyl)-5-phenyl-2-pyrazinecarboxamide]	195 to 197 °C
CC(C)n1nc(-c2nc(NCCc3ccccn3)c(N)nc2-c2ccccc2)ccc1=O [Example 106, 6-(5-amino-3-phenyl-6-{[2-(2-pyridyl)ethyl]amino}-2-pyrazinyl)-2-isopropyl-3(2H)-pyridazinone]	204 to 206 °C
CC(C)n1nc(-c2nc(N3CCN(c4ccccc4)CC3)c(N)nc2-c2ccccc2)ccc1=O [Example 115, 6-[5-amino-3-phenyl-6-(4-phenyl-1-piperazinyl)-2-pyrazinyl]-2-isopropyl-3(2H)-pyridazinone]	193 to 195 °C
CC(C)n1nc(-c2nc(-c3ccoc3)c(N)nc2-c2ccccc2)ccc1=O [Example 81, 6-[5-amino-6-(3-furyl)-3-phenyl-2-pyrazinyl]-2-isopropyl-3(2H)-pyridazinone]	233 to 235 °C
